These results are taken from paper PMC4926109, “Pharmacological targeting of glucose-6-phosphate dehydrogenase in human erythrocytes by Bay 11–7082, parthenolide and dimethyl fumarate” (Scientific Reports, 2016).

SMILES strings stand for the structures. Where a name gives a salt, the structure may show the parent alone.

The term IC50 denotes the concentration at which inhibition is half-maximal. As a reminder, the inhibition is the relative decrease from the control value, in per cent. A lower inhibition goes with a response near the control. As a reminder, the EC50 is the concentration giving half of the maximal effect.

For data set [1], the system named is mature human erythrocytes. The experiment in a line: MCV and MCHC of inhibitor-treated erythrocytes (ADVIA 120 Hematology System). Type of data set: cell-based. Particulars: Hct 0.6%. The protocol: Erythrocyte concentrates (0.6% Hct), suspended in 30 ml Ringer solution were treated with Bay 11–7082 (20 μM), parthenolide (50 μM) and DMF (140 μM) for 24 h, respectively. DMSO (0.2% (v/v))-treated erythrocytes served as negative controls. After incubation, samples were centrifuged at 210 g for 10 min at room temperature in order to obtain RBC pellets. Ionomycin (0.25 μM)-treated erythrocytes served as positive controls, and were first incubated in Ringer solution in the absence of ionomycin for 21.5 h. Subsequently, the cells were treated with ionomycin for 2.5 h, and the MCV and MCHC values were determined. The MCV and MCHC analysis was carried out with an ADVIA 120 Hematology System Instrument (Siemens, Germany).

The subject of data set [2] is mature human erythrocytes. Briefly: Forward scatter (FSC, GeoMean) by flow cytometry, cell volume / cell shrinkage. Particulars: for GeoMean: Hct 0.6%; for decrease of cell volume (forward scatter): increasing concentrations, 24 h and 48 h, 0.4% Hct. The format is cell-based. The procedure:
After incubation, 2·10^6 RBCs were washed in 500 μl Annexin-binding buffer. RBC pellets were then vortexed gently to get a homogenous cell suspension. To detect phosphatidylserine (PS) on the outer leaflet of the plasma membrane, these cells were subsequently stained with 32 μl Annexin V-FLUOS at a 1:33 dilution and mixed gently on a vortex mixer. After 20 min incubation in the dark at room temperature, 200 μl of Annexin-binding buffer was added to each sample, thoroughly vortexed to achieve single cell suspensions, and analysed by flow cytometry on a FACS-Calibur (Becton Dickinson, Heidelberg, Germany). Cell volume was determined by forward scatter (FSC), and Annexin V-FLUOS binding was measured in the FL1-channel.
(In general: In flow cytometry, cells or beads pass a laser one at a time.)

Data set [3] concerns GSH in mature human erythrocytes. The experiment in a line: Intracellular GSH measurement by HPLC (GS-NEM conjugate). Type of data set: cell-based. Conditions: for GSH depletion / GSH: 24 h; for GSH: 0.6% Hct, DMSO control 7.52; for IC50: Homo sapiens, Erythrocyte, 24 h in Ringer solution, 0.6% Hct (mean GSH 15 μM), read-out: IC50 (GSH depletion). The protocol: (§1) DMSO-treated erythrocytes served as negative controls. After incubation, erythrocytes were treated with 0.6 mM (final concentration) NEM prepared as a 310 mM stock in H2O. NEM functioned as the best alkylating agent for GSH conjugation to prevent sample manipulation-induced oxidation of GSH. After a 2-min incubation at room temperature, samples were centrifuged at 210 g for 10 min in order to obtain RBC pellets. These were immediately stored at −20 °C until GSH and GSSG analyses were performed. All measurements were carried out within one week after the treatment. GSH and GSSG were measured in the clear supernatant obtained by treatment of 0.1 ml RBCs with 0.12 ml 15% (w/v) trichloroacetic acid. GSH analysis was carried out by high-performance liquid chromatography (HPLC), as recently reported. […] GSSG was measured photometrically by the GSH recycling method with slight modifications. For hemoglobin determination, one aliquot of the RBC suspensions (10 μl) was hemolysed by 1:200 dilution with H2O[62]. The HPLC analyses were carried out with an Agilent series 1100 instrument (Agilent Technologies, Milan, Italy). The photometric analyses were performed with a Jasco V-530 instrument (Jasco Europe s.r.l. Cremella, Como, Italy).

Data set [4] concerns GSSG in mature human erythrocytes. The experiment in a line: Intracellular GSSG measurement, photometric GSH recycling method. The format is cell-based. Particulars: 24 h, 0.6% Hct, DMSO control 0.06. The procedure: as §1
Data set [5] deals with T1, glucose-6-phosphate dehydrogenase (G6PDH) (Homo sapiens, UniProt P11413).
T1 construct: endogenous in cells; host or cells: human erythrocytes (RBC concentrates), treated 24 h, then lysed
T1 sequence (P11413 2-515 limits assumed): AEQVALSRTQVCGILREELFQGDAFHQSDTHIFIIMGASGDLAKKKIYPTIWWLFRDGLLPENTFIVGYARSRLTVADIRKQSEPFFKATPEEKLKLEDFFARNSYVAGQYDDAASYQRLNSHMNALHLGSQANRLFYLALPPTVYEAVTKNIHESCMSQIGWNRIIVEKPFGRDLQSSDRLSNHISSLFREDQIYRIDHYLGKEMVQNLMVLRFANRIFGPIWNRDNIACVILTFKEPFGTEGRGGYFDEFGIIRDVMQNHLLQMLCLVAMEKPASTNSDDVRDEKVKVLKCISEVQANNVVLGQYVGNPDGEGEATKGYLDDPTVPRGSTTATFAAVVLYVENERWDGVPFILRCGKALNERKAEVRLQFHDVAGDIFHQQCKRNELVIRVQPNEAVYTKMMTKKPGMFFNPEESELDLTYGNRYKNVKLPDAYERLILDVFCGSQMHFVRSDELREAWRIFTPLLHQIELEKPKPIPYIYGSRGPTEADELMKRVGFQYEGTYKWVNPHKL
Briefly: G6PDH activity in lysates of inhibitor-treated erythrocytes. Type of data set: cell-based. Conditions: for EC50: read-out: EC50 (inhibition of G6PDH activity). The procedure: (§2) DMSO-treated erythrocytes served as negative controls. Determinations of the enzymatic activities of G6PDH, 6PGDH and GR (+/− FAD) were performed in leukocytes- and platelets-free erythrocyte lysates according to standard biochemical procedures. After 10 min incubation (20 min for GR) at 37 °C the reaction was started by adding substrate or co-factor. Changes in absorbance at 340 nm were recorded at 1 min intervals for 20 min (Infinite 200 Nanoquant spectrophotometer; Tecan, Männedorf, Switzerland). Specific activity of all enzymes was expressed as U/g Hb. The combined activity of G6PDH and 6PGDH was determined by estimating the conversion of NADP^+ to NADPH in the presence of glucose-6-phosphate (600 μM). The activity of 6PGDH alone was then measured by the conversion of NADP^+ to NADPH in the presence of 6-phosphogluconate (600 μM). Finally, G6PDH activity was calculated by subtracting 6PGDH activity from total dehydrogenase activity.

In data set [6] the target is T2, glutathione reductase (GR) (Homo sapiens, UniProt P00390).
T2 construct: endogenous in cells; host or cells: human erythrocytes (RBC concentrates), treated 24 h, then lysed
T2 sequence (P00390 1-479 isoform P00390-2): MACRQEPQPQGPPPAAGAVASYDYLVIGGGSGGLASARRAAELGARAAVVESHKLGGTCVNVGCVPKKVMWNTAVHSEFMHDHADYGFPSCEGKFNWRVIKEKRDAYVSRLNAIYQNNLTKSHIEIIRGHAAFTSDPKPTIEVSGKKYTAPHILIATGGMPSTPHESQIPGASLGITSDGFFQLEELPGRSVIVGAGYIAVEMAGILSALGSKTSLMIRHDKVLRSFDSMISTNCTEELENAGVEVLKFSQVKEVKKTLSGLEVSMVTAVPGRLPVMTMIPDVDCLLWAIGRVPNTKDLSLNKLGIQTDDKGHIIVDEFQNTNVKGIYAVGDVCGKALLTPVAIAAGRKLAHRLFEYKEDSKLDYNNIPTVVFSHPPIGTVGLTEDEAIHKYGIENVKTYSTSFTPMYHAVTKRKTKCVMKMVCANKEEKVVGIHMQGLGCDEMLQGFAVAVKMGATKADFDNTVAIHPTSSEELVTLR
The experiment in a line: GR activity (+/- FAD) in lysates of inhibitor-treated erythrocytes. Type of data set: cell-based. Conditions: 24 h. The procedure: as §2

The next data set addresses T3, 6PGDH (Homo sapiens, UniProt P52209).
T3 construct: endogenous in cells; host or cells: human erythrocytes (RBC concentrates), treated 24 h, then lysed
T3 sequence (P52209 2-483 limits assumed): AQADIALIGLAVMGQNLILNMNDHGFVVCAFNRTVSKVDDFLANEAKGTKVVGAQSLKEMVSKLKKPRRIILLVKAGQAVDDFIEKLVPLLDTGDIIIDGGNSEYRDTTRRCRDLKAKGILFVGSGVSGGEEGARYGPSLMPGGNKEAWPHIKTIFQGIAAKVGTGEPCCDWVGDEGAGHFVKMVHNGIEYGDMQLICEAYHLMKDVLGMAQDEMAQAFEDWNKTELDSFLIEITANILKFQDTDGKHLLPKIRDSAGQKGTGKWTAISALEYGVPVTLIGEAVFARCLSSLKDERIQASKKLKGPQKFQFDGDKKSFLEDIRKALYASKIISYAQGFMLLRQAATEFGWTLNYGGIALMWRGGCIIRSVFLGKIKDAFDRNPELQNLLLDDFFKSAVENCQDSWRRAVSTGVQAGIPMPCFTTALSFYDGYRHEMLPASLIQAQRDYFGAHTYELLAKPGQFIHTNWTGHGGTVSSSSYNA
Briefly: 6PGDH activity in lysates of inhibitor-treated erythrocytes. The format is cell-based. Conditions: at the concentrations used, data not shown. The protocol: as §2

The next data set has as its system Trypanosoma brucei. The experiment in a line: In vitro growth inhibition of parasite culture (own unpublished data). Type of data set: cell-based. Particulars: preliminary work.
The next data set concerns human erythrocytes. The experiment in a line: Hemolysis (hemoglobin in supernatant, 405 nm). Conditions: 24 h / 48 h, compared with Bay 11–7082.
[7] abbreviates: 50 μM, 24 h incubation, blood group A Rhesus +.
[8] abbreviates: 50 μM, 24 h incubation, blood group B Rhesus +.
Where [9] appears, read: 50 μM, 24 h incubation, blood group O Rhesus +.
The mark [10] stands for this setting: erythrocytes treated 24 h, 0.6% Hct.
[11] abbreviates: 140 μM, 24 h incubation, blood group A Rhesus +.
Setting [12] is: 140 μM, 24 h incubation, blood group B Rhesus +.
Setting [13] is: 140 μM, 24 h incubation, blood group O Rhesus +.
Setting [14] is: 0.25 μM, 2.5 h incubation (after 21.5 h in Ringer), positive control, blood group A Rhesus +.
Setting [15] is: 0.25 μM, 2.5 h incubation (after 21.5 h in Ringer), positive control, blood group B Rhesus +.
The mark [16] stands for this setting: 0.25 μM, 2.5 h incubation (after 21.5 h in Ringer), positive control, blood group O Rhesus +.

`C=C1C(=O)O[C@H]2[C@H]1CC/C(C)=C/CC[C@@]1(C)O[C@@H]21` [Parthenolide, parthenolide]: the MCHC in data set [1] (setting [7]) turned out to be 33.5 g/dL; in data set [1] (setting [8]), 34.4 g/dL; in data set [1] (setting [9]), 33.8 g/dL. Besides, the MCV worked out at 84.1 fL in data set [1] (setting [7]), 82.2 fL in data set [1] (setting [8]) and 87 fL in [1] (setting [9]). Further, the values for the GeoMean in data set [2] (setting [7]), in data set [2] (setting [8]) and in [2] (setting [9]) were 425.24, 418.8 and 451.5, respectively. Besides, the “decrease of cell volume (forward scatter)” value in data set [2] is “to a lesser extent”. The GSH depletion entry in [3] (50 μM) was “almost totally deplete GSH”. The same compound showed a GSH in data set [3] (50 μM) of 0.30 nmol/mg Hb. Also, in data set [3], the half-maximal inhibitory concentration (IC50) is 10 µM. For the same compound, the GSSG in data set [4] (50 μM) was determined as 0.03 nmol/mg Hb. The G6PDH inhibition result in data set [5] (50 μM, 24 h) was “total G6PDH inhibition”. Also, in [5] (50 μM, 24 h), at 50 µM the inhibition was 100%. In data set [5] (setting [10]), this compound registered an EC100 (inhibition of G6PDH activity) of 50 µM. In data set [5] (setting [10]), the EC50 worked out at 12 µM. Besides, the “ability to inhibit GR activity” value in data set [6] (parthenolide 1–50 μM) is “Unlike parthenolide, only Bay 11–7082 and DMF were able to inhibit the GR activity”. Moreover, at 6PGDH, the “inhibitory effect on 6PGDH activity” value is “did not observe any inhibitory effect”. For the same compound, the “in vitro growth inhibitory effect on parasites' culture” value with Trypanosoma brucei is recorded as “significant in vitro growth inhibitory effect”. The “ratio of hemolysis to eryptosis” value in the data set on human erythrocytes is recorded as “even lower as compared with Bay 11–7082”.
Turning to `COC(=O)/C=C/C(=O)OC` [DMF, dimethyl fumarate], the MCHC in data set [1] (setting [11]) turned out to be 33.3 g/dL; in [1] (setting [12]), 33.5 g/dL; in data set [1] (setting [13]), 32.9 g/dL. The MCV was 85.6 fL in [1] (setting [11]), 83.5 fL in [1] (setting [12]) and 88.2 fL in [1] (setting [13]). Moreover, the values for the GeoMean in data set [2] (setting [11]), in data set [2] (setting [12]) and in data set [2] (setting [13]) were 426.7, 427.3 and 448, respectively. Also, the “decrease of cell volume (forward scatter)” value in data set [2] was “to a lesser extent”. The GSH depletion result in data set [3] (140 μM) is listed as “almost totally deplete GSH”. The same compound had a GSH in data set [3] (140 μM) of 0.17 nmol/mg Hb. Also, the IC50 in data set [3] worked out at 20 µM. For the same compound, the GSSG in data set [4] (140 μM) amounted to 0.03 nmol/mg Hb. The G6PDH inactivation in data set [5] (140 μM, 24 h) is given as ~ 50%. In addition, the EC50 in data set [5] (setting [10]) stood at 140 µM. Testing at 140 µM in [6] (140 μM) gave an inhibition of 60%. In addition, the “inhibitory effect on 6PGDH activity” value against 6PGDH was “did not observe any inhibitory effect”. The “in vitro growth inhibitory effect on parasites' culture” value with Trypanosoma brucei is listed as “significant in vitro growth inhibitory effect”. Besides, the “ratio of hemolysis to eryptosis” value in the data set with human erythrocytes is “even lower as compared with Bay 11–7082”.
In the case of `C[C@H](CCC(=O)O)C[C@H](C)C[C@H](C)C(=O)/C=C(\O)[C@H](C)C[C@H](C)C/C=C/[C@@H](C)[C@@H](O)[C@@H](C)[C@@H](O)C[C@@H]1CC[C@@](C)([C@H]2CC[C@@](C)([C@@H](C)O)O2)O1` [Ionomycin], the MCHC in data set [1] (setting [14]) came to 53 g/dL; in data set [1] (setting [15]) it was 50.4 g/dL; in [1] (setting [16]) it was 55.7 g/dL. The MCV came to 73.3 fL in [1] (setting [14]), 72.2 fL in data set [1] (setting [15]) and 75.8 fL in data set [1] (setting [16]). Besides, the GeoMean is given as 209.3 in [2] (setting [14]), 166.2 in data set [2] (setting [15]) and 186.3 in data set [2] (setting [16]).
